In the assay the target is human TLR7 (Homo sapiens (Human), UniProt Q9NYK1). The assay is described as follows: Test for evaluating the inhibition of the activation of human TLR7 (SEAP reporter, TLR7/NF-κB/SEAPorter HEK293 cell). The class given is cell-based. As to conditions: R-848 200 nmol/L; for inhibitory effect against TLR7 in the test for evaluating inhibition of the activation of TLR7: SEAP activity, result in words; for IC50: SEAP reporter. In a few lines:
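HEK293 cells stably expressing full-length human TLR7 and an NF-κB-driven SEAP reporter. They were grown in DMEM with 10% FBS and blasticidin, and seeded at 5×10^4 cells/well overnight at 37° C, 5% CO2. Inhibition of TLR7 activation was read as SEAP output.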

Molecules are shown by their SMILES.

Sequence of human TLR7 (Q9NYK1 27-1049): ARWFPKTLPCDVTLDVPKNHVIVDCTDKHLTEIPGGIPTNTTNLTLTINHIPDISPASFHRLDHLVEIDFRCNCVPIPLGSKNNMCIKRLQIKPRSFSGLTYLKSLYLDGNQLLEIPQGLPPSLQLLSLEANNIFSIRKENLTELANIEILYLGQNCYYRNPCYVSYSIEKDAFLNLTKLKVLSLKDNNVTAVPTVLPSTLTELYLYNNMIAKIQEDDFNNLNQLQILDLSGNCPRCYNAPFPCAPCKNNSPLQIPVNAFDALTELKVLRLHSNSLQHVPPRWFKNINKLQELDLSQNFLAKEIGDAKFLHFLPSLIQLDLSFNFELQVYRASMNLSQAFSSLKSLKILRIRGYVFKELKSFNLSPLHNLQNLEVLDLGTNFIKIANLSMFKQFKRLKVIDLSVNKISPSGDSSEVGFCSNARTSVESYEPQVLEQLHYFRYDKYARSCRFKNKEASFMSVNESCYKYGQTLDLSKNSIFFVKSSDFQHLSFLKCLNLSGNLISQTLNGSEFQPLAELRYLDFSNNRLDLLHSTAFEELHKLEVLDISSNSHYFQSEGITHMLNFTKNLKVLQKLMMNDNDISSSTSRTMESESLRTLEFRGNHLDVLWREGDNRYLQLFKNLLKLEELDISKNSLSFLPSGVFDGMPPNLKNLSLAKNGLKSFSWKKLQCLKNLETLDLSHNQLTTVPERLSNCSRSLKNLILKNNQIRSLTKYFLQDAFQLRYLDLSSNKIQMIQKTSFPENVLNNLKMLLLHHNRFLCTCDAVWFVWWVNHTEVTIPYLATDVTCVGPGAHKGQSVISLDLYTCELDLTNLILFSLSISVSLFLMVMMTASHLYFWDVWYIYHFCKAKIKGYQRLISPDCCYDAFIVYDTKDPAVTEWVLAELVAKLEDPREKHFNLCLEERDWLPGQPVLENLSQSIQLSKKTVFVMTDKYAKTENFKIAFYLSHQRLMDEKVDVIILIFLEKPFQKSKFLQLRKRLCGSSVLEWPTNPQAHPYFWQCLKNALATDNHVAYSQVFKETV

For `COc1nc(C)c2nc(-c3cncc(C#N)c3)n(Cc3ccc(CN4C[C@@H]5C[C@H]4CN5C)cc3F)c2n1` [Example 308, 5-[9-(2-fluoro-4-{[(1S,4S)-5-methyl-2,5-diazabicyclo[2.2.1]hept-2-yl]methyl}benzyl)-2-methoxy-6-methyl-9H-purin-8-yl]pyridine-3-carbonitrile], the “inhibitory effect against TLR7 in the test for evaluating inhibition of the activation of TLR7” value (“inhibitory effect against TLR7” for short) was “potent inhibitory effect against TLR7” and the IC50 was determined as 27 nM.
For `CCN1C[C@@H]2C[C@H]1CN2Cc1ccc(Cn2c(-c3cncc(C#N)c3)nc3c(C)nc(OC)nc32)c(F)c1` [Example 309, 5-[9-(4-{[(1S,4S)-5-ethyl-2,5-diazabicyclo[2.2.1]hept-2-yl]methyl}-2-fluorobenzyl)-2-methoxy-6-methyl-9H-purin-8-yl]pyridine-3-carbonitrile], the “inhibitory effect against TLR7” value was “potent inhibitory effect against TLR7” and the IC50 came to 20 nM.
On the same counts, the results for `COc1nc(C)c2nc(-c3cccnc3)n(Cc3ccc(CN4C[C@@H]5C[C@H]4CN5C)cc3F)c2n1` [Example 310, 9-(2-fluoro-4-{[(1S,4S)-5-methyl-2,5-diazabicyclo[2.2.1]hept-2-yl]methyl}benzyl)-2-methoxy-6-methyl-8-(pyridin-3-yl)-9H-purine] are “potent inhibitory effect against TLR7” and 28 nM.
In the same order, the values of `CCOc1nc(C)c2nc(-c3cncc(C#N)c3)n(Cc3ccc(CN4C[C@@H]5C[C@H]4CN5C)cc3F)c2n1` [Example 311, 5-[2-ethoxy-9-(2-fluoro-4-{[(1S,4S)-5-methyl-2,5-diazabicyclo[2.2.1]hept-2-yl]methyl}benzyl)-6-methyl-9H-purin-8-yl]pyridine-3-carbonitrile] are “potent inhibitory effect against TLR7” and 11 nM.
In the same order, the values of `CCOc1nc(C)c2nc(-c3cncnc3)n(Cc3ccc(CN4C[C@@H]5C[C@H]4CN5C)cc3F)c2n1` [Example 312, 2-ethoxy-9-(2-fluoro-4-{[(1S,4S)-5-methyl-2,5-diazabicyclo[2.2.1]hept-2-yl]methyl}benzyl)-6-methyl-8-(pyrimidin-5-yl)-9H-purine] are “potent inhibitory effect against TLR7” and 25 nM.
In the case of `CCOc1nc(C)c2nc(-c3cncc(F)c3)n(Cc3ccc(CN4C[C@@H]5C[C@H]4CN5C)cc3F)c2n1` [Example 313, 2-ethoxy-9-(2-fluoro-4-{[(1S,4S)-5-methyl-2,5-diazabicyclo[2.2.1]hept-2-yl]methyl}benzyl)-8-(5-fluoropyridin-3-yl)-6-methyl-9H-purine], the “inhibitory effect against TLR7” value is given as “potent inhibitory effect against TLR7” and inhibition was half-maximal at 8 nM (IC50).
In the same order, the values of `COc1nc(C)c2nc(-c3cncc(F)c3)n(Cc3ccc(C4CN5CCC4CC5)cc3F)c2n1` (stereo not shown) [Example 314] are “potent inhibitory effect against TLR7” and 8 nM.
Molecule `CCOc1nc(C)c2nc(-c3cncc(F)c3)n(Cc3cc(OC)c(C4CN5CCC4CC5)cc3F)c2n1` (stereo not shown) [Example 317] gave an IC50 of 1610 nM.
Consider `COc1nc(C)c2nc(-c3cncc(C#N)c3)n(Cc3ccc(O[C@@H]4CN5CCC4CC5)cc3F)c2n1` [Example 322, 5-(9-{4-[(3S)-1-azabicyclo[2.2.2]oct-3-yloxy]-2-fluorobenzyl}-2-methoxy-6-methyl-9H-purin-8-yl)pyridine-3-carbonitrile], for which the “inhibitory effect against TLR7” value is “potent inhibitory effect against TLR7” and it took 13 nM to reach half-maximal inhibition (IC50).
In the case of `COc1nc(C)c2nc(-c3cncnc3)n(Cc3ccc(O[C@@H]4CN5CCC4CC5)cc3F)c2n1` [Example 323, 9-{4-[(3S)-1-azabicyclo[2.2.2]oct-3-yloxy]-2-fluorobenzyl}-2-methoxy-6-methyl-8-(pyrimidin-5-yl)-9H-purine], the “inhibitory effect against TLR7” value is on record as “potent inhibitory effect against TLR7” and the IC50 was determined as 70 nM.
On to `CCOc1nc(C)c2nc(-c3cncc(F)c3)n(Cc3ccc(Br)cc3OC)c2n1` [Example 325], for which the IC50 was determined as 1520 nM. In other words, the single-digit micromolar range.
The same measure, in the same setting: then `COc1nc(C)c2nc(-c3cncc(F)c3)n(Cc3cc(Br)ccc3F)c2n1` [Example 326], with 389 nM.
Regarding `CCOc1nc(C)c2nc(-c3cncc(F)c3)n(Cc3ccc(C4CN5CCC4CC5)nc3OC)c2n1` (stereo not shown) [Example 327], the “inhibitory effect against TLR7” value was “potent inhibitory effect against TLR7” and the IC50 amounted to 23 nM.
For the molecule `COc1nc(C)c2nc(-c3cnc(C)nc3)n(Cc3ccc(OC4CN5CCC4CC5)cc3F)c2n1` (stereo not shown) [Example 329], the IC50 came out at 120 nM.
Turning to `CCOc1nc(C)c2nc(-c3cncc(F)c3)n(Cc3cnc(C4CN5CCC4CC5)cc3C)c2n1` (stereo not shown) [Example 330], half-maximal inhibition (IC50) required 213 nM.
`COc1nc(C)c2nc(-c3cncc(F)c3)n(Cc3ccc(Br)c(F)c3)c2n1` [Example 332] yielded an IC50 of 6480 nM.
Still for that read-out and setting: then `COc1nc(C)c2nc(-c3cncc(F)c3)n(Cc3ccc(Br)cc3F)c2n1` [Example 337], with 1340 nM.
Still for that read-out and setting: then `CCOc1nc(C)c2nc(-c3cncc(F)c3)n(Cc3cnc(Cl)c(F)c3)c2n1` [Example 338], with 667 nM; and `CCOc1nc(C)c2nc(-c3cncc(F)c3)n(Cc3ccc(Br)cc3C#N)c2n1` [Example 339], with 160 nM.
With `COc1nc(C)c2nc(-c3cncc(C#N)c3)n(Cc3ccc(C4CN5CCC4CC5)cc3F)c2n1` (stereo not shown) [Example 340], the “inhibitory effect against TLR7” value is listed as “potent inhibitory effect against TLR7” and it took 26 nM to reach half-maximal inhibition (IC50).
Turning to `COc1nc(C)c2nc(-c3cncc(F)c3)n(Cc3ccc(OS(C)(=O)=O)cc3F)c2n1` [Example 342], the IC50 was determined as 816 nM.
As to `COc1nc(C)c2nc(-c3cncc(C#N)c3)n(Cc3ccc(C4CCNCC4)cc3F)c2n1` [Example 343], the “inhibitory effect against TLR7” value is “potent inhibitory effect against TLR7” and the IC50 is 67 nM.
Consider `COc1nc(C)c2nc(-c3cccc(C#N)c3)n(Cc3ccc(C4CN5CCC4CC5)cc3F)c2n1` (stereo not shown) [Example 344, 3-{9-[4-(1-azabicyclo[2.2.2]oct-3-yl)-2-fluorobenzyl]-2-methoxy-6-methyl-9H-purin-8-yl}benzonitrile], for which the “inhibitory effect against TLR7” value is given as “potent inhibitory effect against TLR7” and the IC50 was 12 nM.
On the same counts, the results for `COc1nc(C)c2nc(-c3cccnc3)n(Cc3ccc(C4CCNCC4)cc3F)c2n1` [Example 345] are “potent inhibitory effect against TLR7” and 36 nM.
Regarding `COc1nc(C)c2nc(-c3cncnc3)n(Cc3ccc(C4CN5CCC4CC5)cc3F)c2n1` (stereo not shown) [Example 346], the “inhibitory effect against TLR7” value was “potent inhibitory effect against TLR7” and 19 nM corresponded to half-maximal inhibition (IC50).
In the same order, the values of `COc1nc(C)c2nc(-c3ccncc3)n(Cc3ccc(C4CN5CCC4CC5)cc3F)c2n1` (stereo not shown) [Example 347] are “potent inhibitory effect against TLR7” and 35 nM.
In the same order, the values of `COc1nc(C)c2nc(-c3cnc(C)nc3)n(Cc3ccc(C4CN5CCC4CC5)cc3F)c2n1` (stereo not shown) [Example 348] are “potent inhibitory effect against TLR7” and 92 nM.
`CCOc1nc(C)c2nc(-c3cncc(F)c3)n(Cc3ccc(C4=CN5CCC4CC5)cn3)c2n1` [Example 352, 9-{[5-(1-Azabicyclo[2.2.2]oct-2-en-3-yl)pyridin-2-yl]methyl}-2-ethoxy-8-(5-fluoropyridin-3-yl)-6-methyl-9H-purine]: 505 nM corresponded to half-maximal inhibition (IC50). That is a sub-micromolar value.
`COc1nc(C)c2nc(-c3cncc(F)c3)n(Cc3ccc(C4=CN5CCC4CC5)cn3)c2n1` [Example 353] registered a half-inhibitory concentration (IC50) of 504 nM.
Still for that read-out and setting: then `CCOc1nc(C)c2nc(-c3cncc(F)c3)n(Cc3ccc(C4=CN5CCC4CC5)cc3OC)c2n1` [Example 354], with 36 nM; and `CCOc1nc(C)c2nc(-c3cncc(F)c3)n(Cc3cnc(C4=CN5CCC4CC5)cc3OC)c2n1` [Example 355], with 1600 nM.
For the molecule `CCOc1nc(C)c2nc(-c3cncc(F)c3)n(Cc3ccc(C4=CN5CCC4CC5)cc3OCC)c2n1` [Example 356], the IC50 was 463 nM.
Still for that read-out and setting: then `COc1nc(C)c2nc(-c3cncc(F)c3)n(Cc3ccc(C4=CN5CCC4CC5)c(F)c3)c2n1` [Example 357], with 62 nM.
Same read-out and setting: then `Cc1nc(O)nc2c1nc(-c1cncc(F)c1)n2Cc1ccc(C2=CN3CCC2CC3)c(F)c1` [Example 358], with 18 nM.
The molecule `CCOc1nc(C)c2nc(-c3cncc(F)c3)n(Cc3ncc(C4=CN5CCC4CC5)cc3F)c2n1` [Example 359] returned an IC50 of 855 nM.
Still for that read-out and setting: then `CCOc1nc(C)c2nc(-c3cncc(F)c3)n(Cc3ccc(C4=CN5CCC4CC5)nc3C(F)(F)F)c2n1` [Example 360], with 1720 nM; and `CCOc1nc(C)c2nc(-c3cncc(F)c3)n(Cc3ccc(C4=CN5CCC4CC5)nc3C#N)c2n1` [Example 361], with 582 nM; and `CCOc1nc(C)c2nc(-c3cncc(F)c3)n(Cc3ccc(C4=CN5CCC4CC5)cc3C#N)c2n1` [Example 363], with 592 nM.
On the same count and under the same terms, then `COc1nc(C)c2nc(-c3cncc(F)c3)n(Cc3cccc(C4=CN5CCC4CC5)c3)c2n1` [Example 364], with 11 nM.
Still for that read-out and setting: then `CCOc1nc(C)c2nc(-c3cncc(F)c3)n(Cc3cnc(CC4CCN(C(=O)OC(C)(C)C)CC4)cc3OC)c2n1` [Example 369], with 1690 nM.
`CCOc1nc(C)c2nc(-c3cncc(F)c3)n(Cc3ccc(C4CN5CCC4CC5)cn3)c2n1` (stereo not shown) [Example 370, 9-{[5-(1-Azabicyclo[2.2.2]oct-3-yl)pyridin-2-yl]methyl}-2-ethoxy-8-(5-fluoropyridin-3-yl)-6-methyl-9H-purine] came in with an IC50 of 117 nM.

Broadly, the IC50 is the point on the concentration scale where inhibition reaches its midpoint. A low value points to inhibition by little substance.
